“And” between values parts separate entries of the source, which are not always exact repeats. Equal entries are not always repeated.
Tests used:
Assay type in all cases: in vivo
Swiss mice CD1 [1] = assay: forced swim test, Alverine administered orally to mice (Example 2)
Swiss mice CD1 [2] = assay: forced swim test, Alverine administered intraperitoneally to mice (Example 1); conditions: Imipramine 10 mg/kg intraperitoneally
Procedure: To establish the advantages according to the present invention a study was carried out to 50 mice. They were divided into 5 groups of 10 mice each. These are Swiss mice CD1 (CD-1® (ICR) IGS (Charles River France) weighing between 25 and 35 g.
They were placed in a room at a temperature of between 19.5 and 24.5° C. and a relative humidity of 45 to 65% with a light/dark cycle of 12 h, ad libitum access to filtered water and pellets of laboratory-standard food.
They are placed 15 to 20 per cage, over an acclimatising period of at least 5 days prior to the tests. They are identified by marking on the fur.
The substance to be tested is Alverine citrate (Sigma, in the form of dry powder, with a salt/base ratio of 1.68) comparatively to imipramine chlorhydrate (Sigma, in the form of dry powder, with a salt/base ratio of 1.13).
The first group is the control group: it is treated only by excipient.
The second group is treated with Alverine at a dose of 3 mg/kg
The third group is treated with Alverine at a dose of 10 mg/kg
The fourth group is treated with Alverine at a dose of 30 mg/kg
The fifth group is treated with imipramine (tricyclic antidepressant) at a dose of 10 mg/kg
The doses are expressed in terms of free active substances. The substances are prepared extemporaneously in the excipient. The treatments are administered 30 minutes prior to the test in a coded and random order intraperitoneally with a volume of 10 ml/kg.
Thirty minutes following administration the five groups of mice are subjected to the forced swim test, in a vertical Plexiglas cylinder (height 24 cm, diameter 9 cm) containing water (height 6 cm, temperature 18-22° C.). The total duration of immobility is measured over the last four minutes of the test, six minutes in total. A mouse is deemed immobile when it ceases struggling and floats in the water without movements superfluous to those allowing it to keep its head above water. A drop in immobility time is the reflection of an antidepressant effect.
The forced swim test is a pre-clinical behavioural model, which has good predictive validity and is widely employed for determining the efficacy of antidepressant medications (Borsini and Meli, 1988).
The results are expressed in total duration of immobility in seconds and as a percentage of variation of the total duration of immobility calculated from the average value of the control group.
The statistical significance between the treated groups and the control group is determined by a Dunnett test using the residual variation according to analysis of the variance (P<0.05). The data are analysed using <<SigmaStat>> software.

Swiss mice CD1 [3] = assay: forced swim test, Alverine and imipramine administered intraperitoneally to mice (Example 3, first test); parameters: key to Dunnett test vs control group: * indicates a significant difference for p < 0.05 (Dunnett test); ns indicates an insignificant result; conditions: for immobility time, individual animals / immobility time, Mean: 30 minutes prior to the test; for immobility time, Mean: n = 10
Procedure: (§1) These are Swiss mice CD1 (CD-1® (ICR) IGS (Charles River France) weighing between 25 and 35 g. […] They are placed 15 to 20 per cage, over an acclimatising period of at least 5 days prior to the tests. They are identified by marking on the fur. […] The mice were divided into two test comprising six groups of 10 mice each. For the first test: The first group is the control group: it is treated only by excipient. The second group is treated with imipramine at a dose of 3 mg/kg The third group is treated with Alverine at a dose of 3 mg/kg The fourth group is treated with Alverine at a dose of 3 mg/kg and imipramine at a dose of 3 mg/kg The fifth group is treated with imipramine at a dose of 10 mg/kg […] The doses are expressed in terms of free active substances. The test substances are prepared extemporaneously in a saline solution. The treatments are co-administered 30 minutes prior to the test in a coded and random order intraperitoneally with a volume of 10 ml/kg (5 ml/kg for each administration). Thirty minutes following administration the six groups of mice are subjected to the forced swim test, in a vertical Plexiglas cylinder (height 24 cm, diameter 9 cm) containing water (height 6 cm, temperature 18-22° C.). The total duration of immobility is measured over the last four minutes of the test, six minutes in total. A mouse is deemed immobile when it ceases struggling and floats in the water without movements superfluous to those allowing it to keep its head above water. A drop in immobility time is the reflection of an antidepressant effect. The forced swim test is a pre-clinical behavioural model, which has good predictive validity and is widely employed for determining the efficacy of antidepressant medications (Borsini and Meli, 1988). The results are expressed in total duration of immobility in seconds and as a percentage of variation of the total duration of immobility calculated from the average value of the control group. The statistical significance between two treated groups is determined by using a Student test (P<0.05) The data are analysed using <<SigmaStat>> software.

Swiss mice CD1 [4] = assay: forced swim test, Alverine and fluoxetine administered intraperitoneally to mice (Example 3, second test); conditions: for immobility time, individual animals / immobility time, Mean: 30 minutes prior to the test; for immobility time, Mean: n = 10
Procedure: as §1, with “the second” for “the first”, “excipient.” for “excipient. The second group is treated with imipramine at a dose of 3 mg/kg The third group is treated with Alverine at a dose of 3 mg/kg The fourth group is treated with Alverine at a dose of 3 mg/kg and imipramine at a dose of 3 mg/kg The fifth group is treated with imipramine at a dose of 10 mg/kg”, “administration). […]” for “administration). Thirty minutes following administration the six groups of mice are subjected to the forced swim test, in a vertical Plexiglas cylinder (height 24 cm, diameter 9 cm) containing water (height 6 cm, temperature 18-22° C.).”

[5] = Imipramine 3 mg/kg intraperitoneally
[6] = Imipramine 10 mg/kg intraperitoneally
[7] = tested alone at 3 mg/kg intraperitoneally
[8] = Fluoxetine 3 mg/kg intraperitoneally
[9] = Fluoxetine 10 mg/kg intraperitoneally

## CN(C)CCCN1c2ccccc2CCc2ccccc21 [Imipramine, imipramine]
Swiss mice CD1 [1]; Imipramine 30 mg/kg orally
  % of variation of immobility time vs control group: −58%
  Dunnett test vs control group: * (* indicates a significant difference for p < 0.05 (Dunnett test))
Swiss mice CD1 [1]; Imipramine 30 mg/kg orally vs Alverine 100 mg/kg orally
  immobility time compared with mice treated with Alverine: comparable to the mice of the fourth group treated at 100 mg/kg of Alverine
Swiss mice CD1 [1]; Imipramine 30 mg/kg orally, 60 minutes prior to the test
  immobility time, individual animals: 52 s and 64 s and 55 s and 5 s and 75 s and 67 s and 70 s and 89 s and 45 s and 96 s
Swiss mice CD1 [1]; Imipramine 30 mg/kg orally, 60 minutes prior to the test, N = 10
  immobility time, Mean: 61.9 s
Swiss mice CD1 [2]
  % of variation of immobility time vs control group: −62%
  Dunnett test vs control group: * (* indicates a significant difference for p < 0.05 (Dunnett test))
Swiss mice CD1 [2]; 30 minutes prior to the test
  immobility time, individual animals: 67 s and 70 s and 1 s and 89 s and 3 s and 9 s and 38 s and 99 s and 53 s and 65 s
Swiss mice CD1 [2]; 30 minutes prior to the test, N = 10
  immobility time, Mean: 49.4 s
Swiss mice CD1 [3]; [5]
  % of variation of immobility time vs control group: −24%
  Dunnett test vs control group: ns
  immobility time, individual animals: 121 sec (2×) and 70 sec and 74 sec and 122 sec and 93 sec and 94 sec and 141 sec and 133 sec and 123 sec
  immobility time, Mean: 109.2 s
Swiss mice CD1 [3]; [6]
  % of variation of immobility time vs control group: −67%
  Dunnett test vs control group: * (* indicates a significant difference for p < 0.05 (Dunnett test))
  immobility time, individual animals: 0 s and 62 s and 38 s and 54 s and 45 s and 92 s and 26 s and 77 s and 80 s and 4 s
  immobility time, Mean: 47.8 s
Swiss mice CD1 [3]; [7]
  decrease in the duration of immobilisation as compared to the control group (in words): statistically insignificant decrease

## CNCCC(Oc1ccc(C(F)(F)F)cc1)c1ccccc1 (stereo not drawn) [Fluoxetine, fluoxetine]
Swiss mice CD1 [4]; [8]
  % of variation of immobility time vs control group: −30%
  Dunnett test vs control group: * (* indicates a significant difference for p < 0.05 (Dunnett test))
  immobility time, individual animals: 149 s and 18 s and 101 s and 99 s and 10 s and 100 s and 103 s
  immobility time, Mean: 105.6 s
Swiss mice CD1 [4]; [9]
  % of variation of immobility time vs control group: −45%
  Dunnett test vs control group: * (* indicates a significant difference for p < 0.05 (Dunnett test))
  immobility time, individual animals: 76 sec (2×) and 83 sec and 105 sec and 90 sec and 28 sec and 88 sec and 34 sec
  immobility time, Mean: 82.7 s
Swiss mice CD1 [4]; [7]
  decrease in the duration of immobilisation as compared to the control group (in words): statistically significant decrease

Reference: patent US20050065218A1, “Utilization of alverine, alone or in combination with tricyclic antidepressant or a specific serotonin reuptake inhibitor for the treatment of depression” (priority 2003, published 2005)
